# Data from patent publication US20090137652A1, “METHODS FOR NEUROPROTECTION” (priority 2005, published 2009).
# Tested on: rats subjected to li-pilo SE
# Assay: Quantification of cell densities 14 days after lithium-pilocarpine SE (Example 2)
# Type: in vivo, rat
# Conditions: 14 days after SE
# Description: All rats received lithium chloride (3 meq/kg, i.p., Sigma, St Louis, Mo., U.S.A.) and about 20 h later, all animals received also methylscopolamine bromide (1 mg/kg, s.c., Sigma) that was administered to limit the peripheral effects of the convulsant. SE was induced by injecting pilocarpine hydrochloride (25 mg/kg, s.c., Sigma) 30 min after methylscopolamine. The effects of increasing doses of TC (RWJ) were studied in 5 groups of rats. […] The control group received vehicle instead of pilocarpine and TC.
# At the moment, neuronal counting is still in progress in the second group of animals studied for epileptogenesis and long-term counting and the data concerning that part of the study will not be included in the present report. For neuronal counting, animals were deeply anesthetized with […] pentobarbital (Dolethal®, Vetoquinol, Lure, France). Brains were then removed and frozen. Serial 20 μm slices were cut in a cryostat, air-dried during several days before thionine staining. […] The grid of counting was placed on a well defined area of the cerebral structure of interest and counting was carried out with a microscopic enlargement of 200- or 400-fold defined for each single cerebral structure. Cell counts were performed twice on each side of three adjacent sections for each region by a single observer unaware of the animal's treatment. The number of cells obtained in the 12 counted fields in each cerebral structure was averaged. This procedure was used to minimize the potential errors that could result from double counting leading to overestimation of cell numbers. […] Counts involved only neurons with cell bodies larger than 10 μm. Cells with small cell bodies were considered as glial cells and were not counted.
# For neuronal damage and epileptogenesis, statistical analysis between groups was performed by means of a one-way analysis of variance followed by a post-hoc Dunnett or Fisher test using the Statistica software.
smiles,measurement,setting,value
NC(=O)OC[C@@H](O)c1ccccc1Cl [Formula 7],"neuronal drop out, layer II of the dorsal piriform cortex","TC 60 mg/kg, significant vs DZP",25%
same,"damage remaining, ventral entorhinal cortex layer II",TC 90 mg/kg,4%
same,"damage remaining, ventral entorhinal cortex layers III/IV",TC 90 mg/kg,17%
same,"neuronal density as % of control levels, piriform cortex",TC 120 mg/kg,78-96%
same,"neurons surviving, all parts of the entorhinal cortex",TC 120 mg/kg,85-94%
same,"cell loss, CA1 pyramidal cell layer","TC30, 60 or 90 rats, significant vs DZP",36-47%
same,"neuronal loss, hilus of the dentate gyrus","TC120 group, not significant vs DZP",53%
same,"cell loss, CA1 pyramidal cell layer","TC120 group, significant vs DZP",12%
same,"neuronal drop out, thalamic nuclei",TC120 rats,4-19%
same,"number of neurons as % of the control level, all amygdala nuclei",TC highest dose (120 mg/kg),86-99%
same,"number of neuronal cell bodies, Amygdala, Basolateral","pilo-TC30 (30 mg/kg), n = 8",27.3 ± 4.9**°
same,"number of neuronal cell bodies, Amygdala, Medial, dorsal anterior","pilo-TC30 (30 mg/kg), n = 8",46.8 ± 5.0
same,"number of neuronal cell bodies, Amygdala, Medial, ventral posterior","pilo-TC30 (30 mg/kg), n = 8",22.3 ± 1.8
same,"number of neuronal cell bodies, Cerebral cortex, Entorhinal, layer II, dorsal","pilo-TC30 (30 mg/kg), n = 8",23.4 ± 0.6
same,"number of neuronal cell bodies, Cerebral cortex, Entorhinal, layer II, ventral","pilo-TC30 (30 mg/kg), n = 8",22.7 ± 0.9
same,"number of neuronal cell bodies, Cerebral cortex, Entorhinal, layer III/IV, dorsal","pilo-TC30 (30 mg/kg), n = 8",22.3 ± 0.5
same,"number of neuronal cell bodies, Cerebral cortex, Entorhinal, layer III/IV, ventral","pilo-TC30 (30 mg/kg), n = 8",13.2 ± 1.9
same,"number of neuronal cell bodies, Cerebral cortex, Piriform, layer II, dorsal","pilo-TC30 (30 mg/kg), n = 8",15.7 ± 2.9
same,"number of neuronal cell bodies, Cerebral cortex, Piriform, layer II, ventral","pilo-TC30 (30 mg/kg), n = 8",7.2 ± 3.8
same,"number of neuronal cell bodies, Cerebral cortex, Piriform, layer III","pilo-TC30 (30 mg/kg), n = 8",1.8 ± 1.8
same,"number of neuronal cell bodies, Hippocampus, CA1 area","pilo-TC30 (30 mg/kg), n = 8",39.3 ± 4.4**°°
same,"number of neuronal cell bodies, Hippocampus, CA3 area","pilo-TC30 (30 mg/kg), n = 8",35.7 ± 1.8
same,"number of neuronal cell bodies, Hippocampus, Hilus","pilo-TC30 (30 mg/kg), n = 8",33.0 ± 3.2
same,"number of neuronal cell bodies, Thalamus, Central medial","pilo-TC30 (30 mg/kg), n = 8",75.6 ± 7.7
same,"number of neuronal cell bodies, Thalamus, Dorsolateral, medial, dorsal","pilo-TC30 (30 mg/kg), n = 8",64.2 ± 9.3**°°
same,"number of neuronal cell bodies, Thalamus, Dorsolateral, ventral lateral","pilo-TC30 (30 mg/kg), n = 8",8.8 ± 2.8
same,"number of neuronal cell bodies, Thalamus, Mediodorsal central","pilo-TC30 (30 mg/kg), n = 8",26.9 ± 0.6
same,"number of neuronal cell bodies, Thalamus, Mediodorsal lateral","pilo-TC30 (30 mg/kg), n = 8",20.5 ± 0.7
same,"number of neuronal cell bodies, Thalamus, Mediodorsal medial","pilo-TC30 (30 mg/kg), n = 8",11.5 ± 2.5
same,"number of neuronal cell bodies, Amygdala, Basolateral","pilo-TC60 (60 mg/kg), n = 11",27.8 ± 4.3**°°
same,"number of neuronal cell bodies, Amygdala, Medial, dorsal anterior","pilo-TC60 (60 mg/kg), n = 11",58.4 ± 2.8**°
same,"number of neuronal cell bodies, Amygdala, Medial, ventral posterior","pilo-TC60 (60 mg/kg), n = 11",26.2 ± 2.9
same,"number of neuronal cell bodies, Cerebral cortex, Entorhinal, layer II, dorsal","pilo-TC60 (60 mg/kg), n = 11",23.9 ± 0.5
same,"number of neuronal cell bodies, Cerebral cortex, Entorhinal, layer II, ventral","pilo-TC60 (60 mg/kg), n = 11",23.3 ± 0.8
same,"number of neuronal cell bodies, Cerebral cortex, Entorhinal, layer III/IV, dorsal","pilo-TC60 (60 mg/kg), n = 11",23.2 ± 0.8
same,"number of neuronal cell bodies, Cerebral cortex, Entorhinal, layer III/IV, ventral","pilo-TC60 (60 mg/kg), n = 11",16.5 ± 2.2
same,"number of neuronal cell bodies, Cerebral cortex, Piriform, layer II, dorsal","pilo-TC60 (60 mg/kg), n = 11",27.5 ± 2.8**°°
same,"number of neuronal cell bodies, Cerebral cortex, Piriform, layer II, ventral","pilo-TC60 (60 mg/kg), n = 11",13.7 ± 4.2
same,"number of neuronal cell bodies, Cerebral cortex, Piriform, layer III","pilo-TC60 (60 mg/kg), n = 11",6.4 ± 2.3
same,"number of neuronal cell bodies, Hippocampus, CA1 area","pilo-TC60 (60 mg/kg), n = 11",31.9 ± 4.4**°°
same,"number of neuronal cell bodies, Hippocampus, CA3 area","pilo-TC60 (60 mg/kg), n = 11",31.6 ± 1.4
same,"number of neuronal cell bodies, Hippocampus, Hilus","pilo-TC60 (60 mg/kg), n = 11",32.8 ± 3.3
same,"number of neuronal cell bodies, Thalamus, Central medial","pilo-TC60 (60 mg/kg), n = 11",83.7 ± 9.6
same,"number of neuronal cell bodies, Thalamus, Dorsolateral, medial, dorsal","pilo-TC60 (60 mg/kg), n = 11",77.5 ± 3.9**°°
same,"number of neuronal cell bodies, Thalamus, Dorsolateral, ventral lateral","pilo-TC60 (60 mg/kg), n = 11",56.7 ± 8.7
same,"number of neuronal cell bodies, Thalamus, Mediodorsal central","pilo-TC60 (60 mg/kg), n = 11",24.1 ± 1
same,"number of neuronal cell bodies, Thalamus, Mediodorsal lateral","pilo-TC60 (60 mg/kg), n = 11",18.9 ± 0.6
same,"number of neuronal cell bodies, Thalamus, Mediodorsal medial","pilo-TC60 (60 mg/kg), n = 11",19.1 ± 2.6
same,"number of neuronal cell bodies, Amygdala, Basolateral","pilo-TC90 (90 mg/kg), n = 10",40.7 ± 1.6°°
